This test addresses T1, α1 and β1 subunits of guanylate cyclase (sGC), expressed in Sf9 cells (Homo sapiens, UniProt Q02108+Q02153).
T1 construct: made in house; host or cells: Sf9 insect cells (baculovirus co-infection); high-speed supernatant used unpurified
T1 sequence (Q02108 1-690): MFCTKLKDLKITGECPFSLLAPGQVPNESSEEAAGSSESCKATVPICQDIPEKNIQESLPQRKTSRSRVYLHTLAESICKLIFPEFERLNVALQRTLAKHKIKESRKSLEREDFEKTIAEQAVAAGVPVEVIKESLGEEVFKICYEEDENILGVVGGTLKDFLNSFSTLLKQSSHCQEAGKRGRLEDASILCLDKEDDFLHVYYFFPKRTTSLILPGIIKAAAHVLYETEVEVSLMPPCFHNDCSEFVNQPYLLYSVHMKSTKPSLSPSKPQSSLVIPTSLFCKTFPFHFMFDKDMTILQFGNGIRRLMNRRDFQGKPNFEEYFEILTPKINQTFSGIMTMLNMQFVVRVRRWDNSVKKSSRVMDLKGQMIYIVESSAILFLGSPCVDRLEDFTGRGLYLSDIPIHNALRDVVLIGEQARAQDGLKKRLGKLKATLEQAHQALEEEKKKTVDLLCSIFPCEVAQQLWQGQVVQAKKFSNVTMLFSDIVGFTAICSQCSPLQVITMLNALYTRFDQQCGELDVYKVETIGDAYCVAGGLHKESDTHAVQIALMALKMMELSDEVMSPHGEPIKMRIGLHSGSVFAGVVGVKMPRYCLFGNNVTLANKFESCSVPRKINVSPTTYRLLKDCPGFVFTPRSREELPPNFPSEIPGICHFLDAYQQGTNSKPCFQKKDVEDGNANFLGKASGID
T1 sequence (Q02153 1-619): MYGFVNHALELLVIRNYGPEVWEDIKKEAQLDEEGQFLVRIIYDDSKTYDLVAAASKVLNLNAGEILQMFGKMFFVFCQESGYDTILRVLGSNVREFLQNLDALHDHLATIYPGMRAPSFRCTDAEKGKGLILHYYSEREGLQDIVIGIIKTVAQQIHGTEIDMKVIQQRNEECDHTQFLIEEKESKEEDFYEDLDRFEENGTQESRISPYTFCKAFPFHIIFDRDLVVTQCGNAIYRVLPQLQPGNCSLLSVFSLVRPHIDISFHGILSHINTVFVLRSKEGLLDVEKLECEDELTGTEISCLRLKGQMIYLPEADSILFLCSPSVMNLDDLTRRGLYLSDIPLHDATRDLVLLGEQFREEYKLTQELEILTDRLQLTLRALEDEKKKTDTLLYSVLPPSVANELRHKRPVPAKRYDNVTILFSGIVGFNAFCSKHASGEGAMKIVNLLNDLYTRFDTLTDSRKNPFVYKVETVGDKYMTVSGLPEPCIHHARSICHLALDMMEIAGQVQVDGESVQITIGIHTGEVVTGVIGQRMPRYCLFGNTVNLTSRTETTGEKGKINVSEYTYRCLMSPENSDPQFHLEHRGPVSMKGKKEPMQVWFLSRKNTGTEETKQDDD
The test can be described thus: Guanylate Cyclase Assay (formation of cyclic GMP from GTP). The class given is biochemical. To be noted: for Mean activation at 100 μM: (activity at 100 μM with 1 μM SNP − activity at 100 μM)/(activity of SNP at 1 μM − basal activity of sGC); for Mean efficacy at 100 μM with 1 μM of SNP, [% of YC-1]: compound at 100 μM with 1 μM sodium nitroprusside (SNP), normalized to 100 μM YC-1 (without SNP) as 100%; for Emax at 100 µM / Mean basal efficacy at 100 μM, [% of YC-1]: compound at 100 μM without SNP, normalized to activity of 100 μM YC-1 (without SNP) as 100%; for Emax at 100 µM: read-out: Mean basal efficacy at 100 μM, [% of YC-1]. On the procedure: Sf9 cells were cultured in Sf-90011 medium supplemented with 10% (v/v) fetal calf serum at 28° C. to give a count of 6×10^5 cells/ml. The cells were then infected with a mixture of the virus stocks for the α1 and β1 subunits of guanylate cyclase at a multiplicity of infection of 0.1 pfu/cell. The cells were harvested 72 hours after infection and were pelleted by centrifugation. The resulting cell pellets were homogenized with Polytron homogenizer in 3 volumes of 20 mM Tris-HCl (pH 7.6) containing 1 mM EDTA, 5 mM dithiothreitol, 90 mM NaCl, 10% glycerol, and protease inhibitors mix (Roche Molecular Biochemicals). The homogenate was centrifuged at 50,000×g for 60 minutes and the supernatant was aliquotted and stored at −80° C.
Compounds of the present invention were dissolved in DMSO to make 100 mM and saved as stocks at −20° C. When compounds were tested, 10-fold concentrated solutions with 10% DMSO were prepared. 10 μl of 10-fold concentrated compound solutions were added to the reaction mixture total of 100 μl.
Guanylate cyclase activity was measured by the formation of cyclic GMP from GTP in a total volume of 100 μl. Guanylate cyclase-expressed Sf9 cell high-speed supernatant (Sf9 high-speed sup) was used as an enzyme source for the assay. The reaction mixture containing 0.1 μl enzyme of Sf9 high-speed sup, compound solution, 50 mM Tris-HCl (pH 7.6), 4 mM MgCl2, 0.5 mM IBMX, 15 mM creatine phosphate, 20 μg creatine phosphokinase, 0.1% BSA and 1 mM GTP were incubated at 37° C. for 15 minutes. After the reaction, 0.9 ml of 50 mM sodium acetate buffer (pH 5.8) was added followed by boiling for 3 minutes to stop the reaction. The solution was centrifuged at 3000 rpm for 15 minutes at room temperature and cyclic GMP in 20 μl of the resulting supernatant was measured according to the protocol of Amersham cyclic GMP enzymeimmunoassay system (Amersham, RPN 226).
Compounds of the present invention were tested at 100 μM with and without 1 μM of sodium nitroprusside (SNP). YC-1 was included as a standard for each assay. The data was normalized with the activity of 100 μM YC-1 (without SNP) as 100%. Mean basal efficacy, in Table 1, was expressed as a percentage of 100 μM YC-1 (without SNP).
The mean activation, in Table 1, was calculated based on the formula: (activity of compound of the present invention at 100 μM with 1 μM SNP)−(activity of compound of on at 100 μM)/(activity of SNP at 1 μM)−(basal activity of sGC).

This is an account of results in patent publication US20040048866A1 (priority 2002, published 2004).

Regarding `CN(C)CCCNC(=O)c1ccc(Oc2nn(Cc3ccccc3)c3ccccc23)o1` [Example 5, 5-[(1-benzyl-1H-indazol-3-yl)oxy]-N-[3-(dimethylamino)propyl]-2-furamide], the “Mean activation at 100 μM” value was determined as 1.7; the “Mean efficacy at 100 μM with 1 μM of SNP, [% of YC-1]” value (from here on “Mean efficacy at 100 μM … [% of YC-1]”) is recorded as 65 % of YC-1; the Emax at 100 µM came to 4%.

Take `O=C(NCC1CCCCC1O)c1ccccc1Oc1nn(Cc2ccccc2)c2ccccc12` (stereo not drawn) [Example 26, 2-[(1-benzyl-1H-indazol-3-yl)oxy]-N-[(2-hydroxycyclohexyl)methyl]benzamide]: the “Mean activation at 100 μM” value was 2.0; the “Mean efficacy at 100 μM … [% of YC-1]” value is 12 % of YC-1; the Emax at 100 µM is 1%.

As for `O=C(NCC(O)c1ccccc1)c1ccc(Oc2nn(Cc3ccccc3)c3ccccc23)o1` (stereo not drawn) [Example 9, 5-[(1-benzyl-1H-indazol-3-yl)oxy]-N-(2-hydroxy-2-phenylethyl)-2-furamide], the “Mean activation at 100 μM” value amounted to 1.6; the “Mean efficacy at 100 μM … [% of YC-1]” value was 13 % of YC-1; the Emax at 100 µM is 0%.

For the compound `FC(F)(F)c1cncc(Oc2nn(Cc3ccccc3)c3ccccc23)c1` [Example 13, 1-benzyl-3-{[5-(trifluoromethyl)-3-pyridinyl]oxy}-1H-indazole], the “Mean activation at 100 μM” value worked out at 1.4; the “Mean efficacy at 100 μM … [% of YC-1]” value is on record as 15 % of YC-1; the Emax at 100 µM was 3%.

On to `O=C(O)c1ccccc1Oc1nn(Cc2ccccc2)c2ccccc12` [Example 15, 2-[(1-benzyl-1H-indazol-3-yl)oxy]benzoic acid], for which the “Mean activation at 100 μM” value is 2.6; the “Mean efficacy at 100 μM … [% of YC-1]” value was 47 % of YC-1; the Emax at 100 µM came to 4%.

Regarding `CN1CCCC1CCNC(=O)c1ccccc1Oc1nn(Cc2ccccc2)c2ccccc12` (stereo not drawn) [Example 23, 2-[(1-benzyl-1H-indazol-3-yl)oxy]-N-[2-(1-methyl-2-pyrrolidinyl)ethyl]benzamide], the “Mean activation at 100 μM” value is 2.2; the “Mean efficacy at 100 μM … [% of YC-1]” value is 15 % of YC-1; the Emax at 100 µM is 3%.

In the case of `c1ccc(Cn2nc(Oc3ncccn3)c3ccccc32)cc1` [Example 12, 1-benzyl-3-(2-pyrimidinyloxy)-1H-indazole], the “Mean activation at 100 μM” value is listed as 2.6; the “Mean efficacy at 100 μM … [% of YC-1]” value is reported as 43 % of YC-1; the Emax at 100 µM is -1%.

As to `NC(=O)c1cccnc1Oc1nn(Cc2ccccc2)c2ccccc12` [Example 14, 2-[(1-benzyl-1H-indazol-3-yl)oxy]nicotinamide], the “Mean activation at 100 μM” value is reported as 1.8; the “Mean efficacy at 100 μM … [% of YC-1]” value is given as 23 % of YC-1; the Emax at 100 µM came to 0%.

Consider `CCCC(CO)NC(=O)c1ccc(Oc2nn(Cc3ccccc3)c3ccccc23)o1` (stereo not drawn) [Example 7, 5-[(1-benzyl-1H-indazol-3-yl)oxy]-N-[1-(hydroxymethyl)butyl]-2-furamide], for which the “Mean activation at 100 μM” value is 3.1; the “Mean efficacy at 100 μM … [% of YC-1]” value is given as 25 % of YC-1; the Emax at 100 µM turned out to be 3%.

`CN(C)CCNC(=O)c1ccccc1Oc1nn(Cc2ccccc2)c2ccccc12` [Example 16, 2-[(1-benzyl-1H-indazol-3-yl)oxy]-N-[2-(dimethylamino)ethyl]benzamide]: the “Mean activation at 100 μM” value is 1.9; the “Mean efficacy at 100 μM … [% of YC-1]” value is 15 % of YC-1; the Emax at 100 µM came out at 6%.

In the case of `C(=Cc1ccccc1)Cn1nc(OCc2ccccc2)c2ccccc21` [Example 27, 3-(benzyloxy)-1-[3-phenyl-2-propenyl]-1H-indazole], the “Mean activation at 100 μM” value came to 1.7; the “Mean efficacy at 100 μM … [% of YC-1]” value is listed as 18 % of YC-1; the Emax at 100 µM is -2%.

On to `O=C(O)c1ccc(Cn2nc(OCc3ccccc3)c3ccccc32)o1` [Example 28, 5-{[3-(benzyloxy)-1H-indazol-1-yl]methyl}-2-furoic acid], for which the “Mean activation at 100 μM” value was 1.9; the “Mean efficacy at 100 μM … [% of YC-1]” value is listed as 27 % of YC-1; the Emax at 100 µM came out at 6%.

For the compound `CC(CCCC(C)(C)O)NC(=O)c1ccc(Oc2nn(Cc3ccccc3)c3ccccc23)o1` (stereo not drawn) [Example 8, 5-[(1-benzyl-1H-indazol-3-yl)oxy]-N-(5-hydroxy-1,5-dimethylhexyl)-2-furamide], the “Mean activation at 100 μM” value is given as 1.5; the “Mean efficacy at 100 μM … [% of YC-1]” value is reported as 9 % of YC-1; the Emax at 100 µM amounted to 0%.

For `c1ccc(Cn2nc(Oc3ccccn3)c3ccccc32)cc1` [Example 11, 1-benzyl-3-(2-pyridinyloxy)-1H-indazole], the “Mean activation at 100 μM” value turned out to be 2.8; the “Mean efficacy at 100 μM … [% of YC-1]” value was 70 % of YC-1; the Emax at 100 µM is 9%.

As for `OCc1ccc(-c2nn(Cc3ccccc3)c3ccccc23)o1` [YC-1, reference compound], the “Mean activation at 100 μM” value turned out to be 2.7; the “Mean efficacy at 100 μM … [% of YC-1]” value is given as 224 % of YC-1; the “Mean basal efficacy at 100 μM, [% of YC-1]” value is recorded as 100 % of YC-1.

Regarding `CN(C)CCCNC(=O)c1ccccc1Oc1nn(Cc2ccccc2)c2ccccc12` [Example 18, 2-[(1-benzyl-1H-indazol-3-yl)oxy]-N-[3-(dimethylamino)propyl]benzamide], the “Mean activation at 100 μM” value was determined as 1.5; the “Mean efficacy at 100 μM … [% of YC-1]” value was 10 % of YC-1; the Emax at 100 µM was 5%.

For `O=C(NN1CCOCC1)c1ccccc1Oc1nn(Cc2ccccc2)c2ccccc12` [Example 25], the “Mean activation at 100 μM” value came to 1.9; the “Mean efficacy at 100 μM … [% of YC-1]” value was 14 % of YC-1; the “Mean basal efficacy at 100 μM, [% of YC-1]” value was 4 % of YC-1.

For `O=C(NCCN1CCOCC1)c1ccc(Oc2nn(Cc3ccccc3)c3ccccc23)o1` [Example 10, 5-[(1-benzyl-1H-indazol-3-yl)oxy]-N-[2-(4-morpholinyl)ethyl]-2-furamide], the “Mean activation at 100 μM” value is recorded as 2.0; the “Mean efficacy at 100 μM … [% of YC-1]” value is 11 % of YC-1; the Emax at 100 µM was 1%.
